According to PubChem BioAssay AID2831 (Southern Research Specialized Biocontainment Screening …, 2010):
Activity calls are given as the source filed them.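 Rule for the calls: active = inhibition over 29.93%, a cutoff 3 SD above the screen mean, later confirmed by dose response; inconclusive = over the cutoff but never tested in dose response; inactive = the rest.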

Test system: S. Typhimurium PhoP-regulated promoter-GFP reporter, fluorescence, 4 h
Assay: PhoP promoter GFP reporter reduction in Typhimurium – purified and synthesized compounds, set 2, PhoP regulon inhibitor project, dose response (AID 2831)
Settings: not given

Structure (SMILES) | IC50
O=C1C2=C(Nc3ccccc3SC2c2ccccc2Cl)c2ccccc21 (stereo unspecified) | 141 µM
CCCCn1c(NS(=O)(=O)c2ccccc2)c(S(=O)(=O)c2ccc(C)cc2)c2nc3ccccc3nc21 | < 0.15 µM
CCCCCNC(=O)c1cn(CC)c2cc(N3CCN(C)CC3)c(F)cc2c1=O | < 0.15 µM
CN(C)CCCN(C(=O)CCc1ccccc1)c1nc2ccc(Cl)cc2s1 | < 0.15 µM
O=C(O)c1cn(-c2ccc(F)cc2)c2cc(Cl)c(F)cc2c1=O | < 0.15 µM
COc1c(N2CCN(C(=S)NCc3ccccc3)C(C)C2)c(F)cc2c(=O)c(C(=O)O)cn(C3CC3)c12 (stereo unspecified) | 85.5 µM
S=C(NCc1ccccc1Cl)Nc1ccncc1 | 146 µM
O=C1C2=C(Nc3ccccc3SC2c2ccccc2Br)c2ccccc21 (stereo unspecified) | 88.3 µM
CCn1cc(C(=O)O)c(=O)c2cc(F)c(N3CCN(C(=S)NC(=O)c4ccccc4F)CC3)cc21 | 106 µM
CCn1cc(C(=O)O)c(=O)c2cc(F)c(N3CCN(C(=S)Nc4ccccc4Cl)CC3)cc21 | 46.5 µM
S=C(NCc1ccc(Cl)cc1)Nc1cccc(Cl)c1 | 58.8 µM
COc1cccc(C2Sc3ccccc3NC3=C2C(=O)c2ccccc23)c1 (stereo unspecified) | 76.8 µM
CCOc1ccc(NC(=S)N2CCN(c3cc4c(cc3F)c(=O)c(C(=O)O)cn4CC)CC2)cc1 | 2.03 µM
O=S(=O)(Nc1c(S(=O)(=O)c2ccccc2)c2nc3ccccc3nc2n1C1CCCCC1)c1ccccc1 | < 0.15 µM
C1=C(CCNc2ncnc3c2[nH]c2ccccc23)CCCC1 | < 0.15 µM
N#C/C(=C\c1ccc[nH]1)C(=O)NC1CC1 | < 0.15 µM
CCn1cc(C(=O)O)c(=O)c2cc(F)c(N3CCN(C(=S)Nc4ccccc4C)CC3)cc21 | 27.9 µM
CCn1cc(C(=O)O)c(=O)c2cc(F)c(N3CCN(C(=S)NC(=O)c4ccccc4Cl)CC3)cc21 | 42.6 µM
O=C1c2ccccc2C2=Nc3ccccc3SC(c3ccccc3F)C12 (stereo unspecified) | < 0.15 µM
Cc1ccc(Nc2cc(C)c3c(O)cccc3n2)cc1C | 112 µM
O=C1C2=C(Nc3ccccc3SC2c2ccc(I)cc2)c2ccccc21 (stereo unspecified) | 133 µM
CCCCn1c(NS(=O)(=O)c2ccc(C)cc2)c(S(=O)(=O)c2ccccc2)c2nc3ccccc3nc21 | < 0.15 µM
S=C(NCc1ccc(Cl)cc1)Nc1ccncc1 | 76.6 µM
O=[N+]([O-])c1ccc(CNC2CCCc3ccccc32)cc1 (stereo unspecified) | 69.1 µM
COc1ccccc1Nc1nc(NCc2ccco2)c2ccccc2n1 | < 0.15 µM
CCn1cc(C(=O)O)c(=O)c2cc(F)c(N3CCN(C(=S)Nc4ccccc4C(F)(F)F)CC3)cc21 | 3.79 µM
COc1ccc(NC(=O)c2cc(Br)c(Br)s2)cn1 | < 0.15 µM
O=C(Nc1cccnc1)c1cc(Br)c(Br)s1 | < 0.15 µM
O=c1c2ccccc2[nH]c2ccc(F)cc12 | < 0.15 µM
CN1CCc2nc(SCC(=O)Nc3cccc(F)c3)c(C#N)c(-c3cccs3)c2C1 | < 0.15 µM

Test system: not listed separately
Assay: as above
Settings: S. Typhimurium PhoP-regulated promoter-GFP reporter, fluorescence, 4 h; at 150 µM (top of the series)

Structure (SMILES) | inhibition
Cc1cccc(NC(=S)NCc2ccc(Cl)cc2)c1 | 18.9% (inactive)
S=C(NCc1ccc(Cl)cc1)Nc1ccc(Br)cc1 | -3.88% (inactive)
Cc1ccc(NC(=S)NCc2ccc(Cl)cc2)cc1 | 26.1% (inactive)
O=C(Nc1ccccc1)N1CCCN(Cc2ccccc2F)C1 | -140% (inactive)
CCn1cc(C(=O)O)c(=O)c2cc(F)c(N3CCN(C(=S)NC)CC3)cc21 | -22.9% (inactive)
O=C1C2=C(Nc3ccccc3SC2c2ccsc2)c2ccccc21 (stereo unspecified) | 7.75% (inactive)
O=C1C2=C(Nc3ccccc3SC2c2ccc(C(F)(F)F)cc2)c2ccccc21 (stereo unspecified) | -14.5% (inactive)
O=C(NCc1ccccc1)N1CCCN(Cc2ccccc2F)C1 | -78.3% (inactive)
S=C(NCc1ccc(Cl)cc1)Nc1cccnc1 | -84.8% (inactive)
O=C(Nc1ccccc1)N1CCCN(Cc2ccc(F)cc2)C1 | -3.43% (inactive)
O=C(Nc1ccc(Cl)cc1)N1CCCN(Cc2ccc(F)cc2)C1 | -86.3% (inactive)
COc1ccccc1NC(=O)N1CCCN(Cc2ccccc2F)C1 | 13.8% (inactive)
CCn1cc(C(=O)O)c(=O)c2cc(F)c(N3CCN(C(=S)NCc4ccccc4)CC3)cc21 | -0.39% (inactive)
Fc1ccccc1NC(=S)NCc1ccc(Cl)cc1 | -10.3% (inactive)
CCn1cc(C(=O)O)c(=O)c2cc(F)c(N3CCN(C(=S)Nc4ccc(Cl)cc4)CC3)cc21 | -15% (inactive)
O=C(Nc1ccccc1Cl)N1CCCN(Cc2ccccc2F)C1 | -64.3% (inactive)
Cc1ccc(CN2CCCN(C(=O)Nc3ccc(Cl)cc3)C2)cc1 | 17.3% (inactive)
O=C1C2=C(Nc3ccccc3SC2c2ccccc2C(F)(F)F)c2ccccc21 (stereo unspecified) | -23.8% (inactive)
COc1ccc(NC(=S)NCc2ccc(Cl)cc2)cc1 | 1.77% (inactive)
O=C(Nc1ccc(Br)cc1)N1CCCN(Cc2ccccc2F)C1 | -62.1% (inactive)
COc1cccc(NC(=S)NCc2ccc(Cl)cc2)c1 | 2.44% (inactive)
